Tests used:
Type in all cases: biochemical
[1] = molecular target: T1, KIF14 V342-K720 MD protein (SEQ ID NO:4) (Homo sapiens, UniProt Q15058); experiment: KIF14 motor domain microtubule-dependent ATPase assay (Quinaldine Red); conditions: n = 2
T1 construct: made in house; host or cells: E. coli BL21 (DE3)
T1 sequence (Q15058 with tags, fused parts or gaps): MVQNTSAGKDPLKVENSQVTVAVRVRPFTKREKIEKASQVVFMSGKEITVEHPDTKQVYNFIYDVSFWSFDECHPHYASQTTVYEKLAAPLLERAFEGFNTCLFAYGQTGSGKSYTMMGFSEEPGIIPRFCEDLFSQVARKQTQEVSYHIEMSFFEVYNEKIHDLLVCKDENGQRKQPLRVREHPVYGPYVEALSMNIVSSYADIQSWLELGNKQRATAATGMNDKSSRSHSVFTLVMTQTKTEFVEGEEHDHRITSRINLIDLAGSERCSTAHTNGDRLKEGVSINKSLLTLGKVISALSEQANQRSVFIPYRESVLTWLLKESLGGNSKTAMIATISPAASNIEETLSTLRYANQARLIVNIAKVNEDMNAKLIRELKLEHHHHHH
Method: KIF14 Motor Domain Assay: KIF14 MDs were assayed for microtubule (MT)-dependent ATP hydrolysis by measuring the rate of inorganic phosphate (Pi) release using the dye Quinaldine Red, which absorbs light of 540 nm when bound to Pi. Assays (50 microliters) contained 50 mM K-PIPES pH 6.9 (which contains 90 mM KCl), 1 mM EGTA pH 8.0, 1 mM DTT, 100 micrograms/mL BSA, 2 mM MgCl2, 1 mM Na-ATP pH 7.0, 0.25-5 micromolar MT (which contain equimolar amounts of Taxol®), and 20-200 nM KIF14 MD enzyme. Reactions were initiated by the addition of enzyme and allowed to proceed at room temperature until they were quenched at regular time intervals by the addition of 50 microliters of 1.8 M KCl, 50 mM EDTA. To this was added 150 microliters of the Quinaldine Red dye solution (0.07 mg/mL quinaldine red, 0.09% polyvinyl alcohol, 4.1 mM ammonium molybdate, and 380 mM H2SO4). After 10 min incubation at room temperature, absorbance at 540 nm was read on a Molecular Devices Microtiter plate reader. Rates were calculated using the linear (steady-state) phase of the reaction.
Suitability of K14 Motor Domains for high-throughput screening: The motor domain assay was as described above, using 50 mM MES pH 6.0, 20 mM added KCl, 0.5 micromolar MTs, a temperature of 37° C., and varying enzyme concentration from 0 to 10 nM. The signal to background ratio, calculated as the amount of Pi formed after a 90 minute incubation in the presence of enzyme relative to in the absence of enzyme, was determined using different concentrations of the V342-K720 motor domain (SEQ ID NO:4), and is shown in Table 9. A high enough signal over background was obtained at low enzyme concentrations to allow high-through-put screening (HTS). Moreover, the V342-K720 motor domain (SEQ ID NO:4) was stable in the reaction for at least 90 minutes.
Screen for KIF14 Modulators: The ATPase assay described in EXAMPLE 7, as optimized in EXAMPLE 8, was used to screen for compounds that modulated the activity of the KIF14 V342-K720 MD protein (SEQ ID NO:4).

[2] = molecular target: T2, uKHC (SEQ ID NO:17) (Homo sapiens, UniProt P33176); experiment: uKHC motor domain ATPase assay; conditions: read-out: uKHC, nKHC, CENP-E, MKLP-1, KIF1B, MCAK ATPase IC50
T2 construct: His6 (printed only as 'H')
T2 sequence (P33176 with tags, fused parts or gaps): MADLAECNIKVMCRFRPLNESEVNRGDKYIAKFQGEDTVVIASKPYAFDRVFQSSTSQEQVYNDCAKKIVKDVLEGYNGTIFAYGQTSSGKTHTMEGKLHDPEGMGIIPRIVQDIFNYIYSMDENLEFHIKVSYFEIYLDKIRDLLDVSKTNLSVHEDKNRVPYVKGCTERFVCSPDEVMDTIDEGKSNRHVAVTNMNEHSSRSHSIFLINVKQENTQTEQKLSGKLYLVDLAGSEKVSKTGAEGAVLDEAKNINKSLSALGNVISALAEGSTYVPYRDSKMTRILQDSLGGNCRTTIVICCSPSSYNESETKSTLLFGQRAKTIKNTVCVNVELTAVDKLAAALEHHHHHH

[3] = molecular target: T3, nKHC (SEQ ID NO:18) (Homo sapiens, UniProt Q12840); experiment: nKHC motor domain ATPase assay; conditions: read-out: uKHC, nKHC, CENP-E, MKLP-1, KIF1B, MCAK ATPase IC50
T3 construct: His6 (printed only as 'H')
T3 sequence (Q12840 with tags, fused parts or gaps): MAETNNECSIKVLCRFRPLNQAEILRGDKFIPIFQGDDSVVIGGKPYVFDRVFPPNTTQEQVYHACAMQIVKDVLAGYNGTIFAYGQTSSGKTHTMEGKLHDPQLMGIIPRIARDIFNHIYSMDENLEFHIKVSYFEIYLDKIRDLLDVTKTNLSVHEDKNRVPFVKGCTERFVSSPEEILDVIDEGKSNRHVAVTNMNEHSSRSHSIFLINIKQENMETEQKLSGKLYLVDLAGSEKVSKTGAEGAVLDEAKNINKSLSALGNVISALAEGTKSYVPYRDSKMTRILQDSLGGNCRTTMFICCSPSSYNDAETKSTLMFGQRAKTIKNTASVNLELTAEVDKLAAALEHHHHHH

[4] = molecular target: T4, KIF1B (SEQ ID NO:21) (Homo sapiens, UniProt O60333); experiment: KIF1B motor domain ATPase assay; conditions: read-out: uKHC, nKHC, CENP-E, MKLP-1, KIF1B, MCAK ATPase IC50
T4 construct: His6 (printed only as 'H')
T4 sequence (O60333 with tags, fused parts or gaps): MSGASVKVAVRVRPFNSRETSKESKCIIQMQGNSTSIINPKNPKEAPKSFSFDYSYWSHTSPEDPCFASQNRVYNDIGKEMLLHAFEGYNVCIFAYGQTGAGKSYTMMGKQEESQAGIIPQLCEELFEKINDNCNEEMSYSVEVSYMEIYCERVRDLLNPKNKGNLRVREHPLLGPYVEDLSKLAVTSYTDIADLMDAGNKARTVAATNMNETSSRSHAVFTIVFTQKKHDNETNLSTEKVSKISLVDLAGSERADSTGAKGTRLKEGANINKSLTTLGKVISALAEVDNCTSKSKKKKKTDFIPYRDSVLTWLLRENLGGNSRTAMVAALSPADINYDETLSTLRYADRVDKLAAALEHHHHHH

[5] = molecular target: MCAK (SEQ ID NO:22) (Homo sapiens, UniProt Q99661); experiment: MCAK motor domain ATPase assay; conditions: read-out: uKHC, nKHC, CENP-E, MKLP-1, KIF1B, MCAK ATPase IC50
MCAK (SEQ ID NO:22), sequence (Q99661 183-646): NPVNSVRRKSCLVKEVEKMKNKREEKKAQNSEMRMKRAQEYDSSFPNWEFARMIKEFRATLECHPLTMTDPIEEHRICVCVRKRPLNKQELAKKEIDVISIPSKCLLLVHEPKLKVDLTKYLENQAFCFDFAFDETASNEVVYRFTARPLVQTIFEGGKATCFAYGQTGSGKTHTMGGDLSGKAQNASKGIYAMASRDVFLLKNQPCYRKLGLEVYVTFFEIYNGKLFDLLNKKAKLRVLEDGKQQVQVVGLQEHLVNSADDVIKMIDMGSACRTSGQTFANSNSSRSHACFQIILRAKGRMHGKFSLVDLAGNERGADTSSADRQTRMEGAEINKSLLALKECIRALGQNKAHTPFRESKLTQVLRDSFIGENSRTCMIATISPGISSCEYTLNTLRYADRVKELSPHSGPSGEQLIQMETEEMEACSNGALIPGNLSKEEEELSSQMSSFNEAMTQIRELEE

Row | Structure (SMILES) | IC50 [1] [µM] | IC50 [2] [µM] | IC50 [3] [µM] | IC50 [4] [µM] | IC50 [5] [µM]
1 | NC(=S)N/N=C\c1ccc(-c2ccccc2)cc1 [compound 1, 1,1′-biphenyl-4-carbaldehyde thiosemicarbazone] | 0.182 | > 40 | > 40 | > 40 | > 40
2 | CC(C)c1ccc(/C=N/NC(N)=S)cc1 [compound 2, 4-isopropylbenzaldehyde thiosemicarbazone] | 0.895 | > 40 | > 40 | > 40 | > 40
3 | NC(=S)N/N=C/c1ccc(C2CCCCC2)cc1 [compound 3, 4-cyclohexylbenzaldehyde thiosemicarbazone] | 0.076 | > 40 | > 40 | > 40 | > 40
4 | CC(C)c1ccc(/C=N/NC(N)=S)cc1[N+](=O)[O-] [compound 4, 4-isopropyl-3-nitrobenzaldehyde thiosemicarbazone] | 0.054 | > 40 | > 40 | > 40 | > 40
